Test results reported in publication PMC11784839, “Monoaminergic neurotransmitters are bimodal effectors of tau aggregation” (Science Advances, 2025).

Target: tau (Homo sapiens, UniProt P10636)
Assay: MCE Phenols Library screening, tau biosensor cell seeding assay (AvZ)
Type: cell-based
Settings: for Z repl 1 / Z Repl 2: Z score; for Z repl 1 / raw data 1: replicate 1; for Z Repl 2 / raw data 2: replicate 2; for AvZ (average z score of seeding, SDs from the mean level of seeding): 10 μM phenol in cell cultures, AD brain homogenate preincubated 16 hours, two biological replicates, positive = catalyzes seeding, negative = inhibits
[1] = average Z score of the two replicates, MCE Phenols Library screen
[2] = average puncta of the two replicates
[3] = average Z score of two replicates, Phenols Library screen
[4] = average Z score of the two replicates, tau seeding

Chain of tau (P10636 623-695 limits assumed): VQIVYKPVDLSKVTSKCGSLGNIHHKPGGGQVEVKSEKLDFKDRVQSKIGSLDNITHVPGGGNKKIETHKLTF

COc1cc(O)c2c(=O)c(O[C@@H]3O[C@H](CO)[C@@H](O)[C@H](O)[C@H]3O)c(-c3ccc(O[C@@H]4O[C@H](CO)[C@@H](O)[C@H](O)[C@H]4O)cc3)oc2c1 [Complanatuside]
Z repl 1: -0.533
Z Repl 2: -0.238
av Z [1]: -0.385
av puncta [2]: 15089
raw data 1 (raw puncta): 19953.5
raw data 2 (raw puncta): 10224.5

COc1cc(/C=C/CO)ccc1O [Coniferyl alcohol]
AvZ (average z score of seeding, SDs from the mean level of seeding): 0.529
Z repl 1: 0.738
Z Repl 2: 0.319
av puncta (average of raw data 1 and 2): 25693.5
raw data 1 (puncta): 35213
raw data 2 (puncta): 16173.9

COc1cc(/C=C/COC(=O)/C=C/c2ccc(O)c(OC)c2)ccc1O [Coniferyl ferulate]
Z repl 1: 0.368
Z Repl 2: -0.434
av Z [3]: -0.033
av puncta (average of raw data 1 and 2): 19449.2
raw data 1 (puncta): 30768
raw data 2 (puncta): 8130.42

O=C(O[C@@H]1O[C@@H]2COC(=O)c3cc(O)c(O)c(O)c3-c3c(cc(O)c(O)c3O)C(=O)O[C@H]([C@H]1O)[C@@H]2O)c1cc(O)c(O)c(O)c1 [Corilagin]
Z repl 1: -1.842
Z Repl 2: -1.134
av Z [1]: -1.488
av puncta (average of raw data 1 and 2): 2445.41
raw data 1 (puncta): 4240.16
raw data 2 (puncta): 650.661

CC(C)=CCC/C(C)=C/Cc1cc(-c2coc3cc(O)ccc3c2=O)ccc1O [Corylifol A]
Z repl 1: 0.054
Z Repl 2: -0.445
av Z [3]: -0.196
av puncta (average of raw data 1 and 2): 17502.5
raw data 1 (puncta): 26996.8
raw data 2 (puncta): 8008.18

COc1cc2c(cc1O)CCN1Cc3c(ccc(OC)c3OC)CC21 (stereo not drawn) [Corypalmine]
Z repl 1: 0.295
Z Repl 2: -0.524
av Z [3]: -0.114
av puncta (average of raw data 1 and 2): 18532.2
raw data 1 (puncta): 29892.4
raw data 2 (puncta): 7171.93

O=c1oc2cc(O)ccc2c2oc3cc(O)ccc3c12 [Coumestrol]
Z repl 1: -0.018
Z Repl 2: -0.542
av Z [1]: -0.28
av puncta [2]: 16558.4
raw data 1 (raw puncta): 26137.6
raw data 2 (raw puncta): 6979.18

COc1cc(C)ccc1O [Creosol]
AvZ (average z score of seeding, SDs from the mean level of seeding): 0.768
Z repl 1: 0.313
Z Repl 2: 1.224
av puncta (average of raw data 1 and 2): 27969.9
raw data 1 (puncta): 30100.9
raw data 2 (puncta): 25838.9

O=C(/C=C/c1ccc(O)c(O)c1)O[C@H]1[C@H](O)C[C@](O)(C(=O)O)C[C@H]1O [Cryptochlorogenic acid]
Z repl 1: 0.935
Z Repl 2: 0.427
av Z [4]: 0.681
av puncta (average of raw data 1 and 2): 27449.5
raw data 1 (puncta): 37574
raw data 2 (puncta): 17325

COc1cccc(OC)c1C(=O)OCc1cc(O)ccc1O[C@@H]1O[C@H](CO)[C@@H](O)[C@H](O)[C@H]1O [Curculigoside]
Z repl 1: -0.772
Z Repl 2: 0.136
av Z [1]: -0.318
av puncta [2]: 15649.1
raw data 1 (raw puncta): 17078.1
raw data 2 (raw puncta): 14220.1

OC[C@H]1O[C@@H](Oc2cc3c(O)cc(O)cc3[o+]c2-c2ccc(O)c(O)c2)[C@H](O[C@@H]2OC[C@@H](O)[C@H](O)[C@H]2O)[C@@H](O)[C@@H]1O.[Cl-] [Cyanidin 3-sambubioside (chloride)]
Z repl 1: -0.124
Z Repl 2: -1.008
av Z [1]: -0.566
av puncta [2]: 13432.8
raw data 1 (puncta): 24866.3
raw data 2 (puncta): 1999.21

Oc1cc(O)c2cc(O)c(-c3ccc(O)c(O)c3)[o+]c2c1.[Cl-] [Cyanidin (Chloride)]
Z repl 1: -1.789
Z Repl 2: -1.05
av Z [1]: -1.419
av puncta (average of raw data 1 and 2): 3213.88
raw data 1 (puncta): 4876.54
raw data 2 (puncta): 1551.23

OC[C@H]1O[C@@H](Oc2cc3c(O)cc(O)cc3[o+]c2-c2ccc(O)c(O)c2)[C@H](O)[C@@H](O)[C@H]1O.[Cl-] [Cyanidin-3-O-galactoside (chloride)]
Z repl 1: -1.814
Z Repl 2: -0.88
av Z [1]: -1.347
av puncta (average of raw data 1 and 2): 3972.36
raw data 1 (puncta): 4573.89
raw data 2 (puncta): 3370.84

O=c1c(-c2ccc(O)cc2)coc2cc(O)ccc12 [Daidzein]
av puncta [2]: 16957.6
raw data 1 (raw puncta): 27554
raw data 2 (raw puncta): 6361.09

O=C([O-])C(O)Cc1ccc(O)c(O)c1.[Na+] (stereo not drawn) [Danshensu (sodium salt)]
AvZ (average z score of seeding, SDs from the mean level of seeding): -0.495
Z repl 1: -0.172
Z Repl 2: -0.817
av puncta [2]: 14160.8
raw data 1 (puncta): 24282
raw data 2 (puncta): 4039.49

O=C(O)[C@H](O)Cc1ccc(O)c(O)c1 [Danshensu]
AvZ (average z score of seeding, SDs from the mean level of seeding): -0.723
Z repl 1: -0.37
Z Repl 2: -1.076
av puncta [2]: 11586.7
raw data 1 (puncta): 21904.2
raw data 2 (puncta): 1269.24

O=C1c2cccc(O)c2C(=O)c2c(O)cccc21 [Danthron]
Z repl 1: -1.052
Z Repl 2: -0.634
av Z [1]: -0.843
av puncta (average of raw data 1 and 2): 9858.03
raw data 1 (puncta): 13720.6
raw data 2 (puncta): 5995.43

COc1cc2cc(Oc3ccc4ccc(=O)oc4c3)c(=O)oc2cc1O [Daphnoretin]
Z repl 1: -0.257
Z Repl 2: -0.157
av Z [1]: -0.207
av puncta [2]: 17173.7
raw data 1 (raw puncta): 23258.6
raw data 2 (raw puncta): 11088.8

C/C=C/c1cc(OC)c2c(c1)C(C)C(c1ccc(O)c(OC)c1)O2 (stereo not drawn) [Dehydrodiisoeugenol]
Z repl 1: 0.835
Z Repl 2: 0.419
av Z [4]: 0.627
av puncta (average of raw data 1 and 2): 26809.6
raw data 1 (puncta): 36377.1
raw data 2 (puncta): 17242.2
